Results on 1 compound are retold here after US20150238487A1, “NOVEL ERGOLINE DERIVATIVES AND USES THEREOF” (MAP Pharmaceuticals, Inc., priority 2012, published 2015).

In one experiment the target is T1, Dopamine D3 (Homo sapiens, UniProt P35462).
T1 construct: expressed in transfected cells; host or cells: CHO-K1 (membrane extracts)
Nature of the experiment: GTPγ[35S] assay, Dopamine D3. Format: biochemical. The note with it: agonism, CHO-K1 membranes. The procedure: (§1) Receptor […] activity assays were performed using 8′OH-2-CF3-dihydroergotamine (8′OH-2-CF3-DHE). Table 1 summarizes the cell lines (CHO-K1/HEK293 transfected with relevant human receptor) and the assays performed to detect any agonist or antagonist activity.
GTPγS studies were conducted to monitor agonist activity for 8′OH-2CF3-dihydroergotamine (8′OH-2CF3-DHE) against the receptors indicated in Table 1 above. Reagents used were the following: Assay buffer (20 mM HEPES, pH 7.4; 100 mM NaCl; 10 μg/mL saponin; 30 mM MgCl2); Membranes (recombinant human receptor membrane extracts were thawed on ice and diluted in assay buffer to give 1000 μg/mL ([…]) and kept on ice); GDP (diluted in assay buffer to give 30 μM solution (3 μM final concentration); beads (PVT-WGA (Amersham, RPNQ001), diluted in assay buffer at 25 mg/mL (0.25 mg/10 μL)); GTPγ^35S (Perkin Elmer, NEG030X), diluted in assay buffer to give 0.1 nM (final concentration); and ligand (agonist/antagonist diluted in assay buffer).
Membranes were mixed with GDP (1:1) and incubated for at least 15 minutes on ice. In parallel GTPγ^35S was mixed with the beads (1:1) just before starting the reaction. […] The plates were then centrifuged for 10 minutes at 2000 rpm and incubated at room temperature for 1 hour and counted for 1 min/well with a Perkin Elmer TopCount reader.

A further experiment concerns the target T2, Serotonin 5-HT1F (Homo sapiens, UniProt P30939).
T2 construct: expressed in transfected cells; host or cells: CHO-K1
Kind of experiment: cAMP HTRF assay, Serotonin 5-HT1F. In kind it is cell-based. The note with it: CHO-K1, cAMP. The protocol: as §1
cAMP HTRF (Gi) studies were conducted to monitor activity for 8′OH-2CF3-dihydroergotamine (8′OH-2CF3-DHE) against the receptors indicated in Table 1 above. Cells expressing the human recombinant receptor of interest were grown in media without antibiotic and detached by gentle flushing with PBS-EDTA (5 mM EDTA), recovered by centrifugation and resuspended in assay buffer (KRH: 5 mM KCl, 1.25 mM MgSO4, 124 mM NaCl, 25 mM HEPES, 13.3 mM glucose, 1.25 mM KH2PO4, 1.45 mM CaCl2, 0.5 g/L BSA). Dose response curves were performed in parallel with the reference compounds. For agonist tests (96-well plates), 12 μL of cells was mixed with 6 μL of the test compound at increasing concentrations and 6 μL of forskolin and then incubated for 30 minutes at room temperature. Lysis buffer was added and after a 1 hour incubation, cAMP concentrations was determined according to the manufacturer specification with the HTRF kit. […] Lysis buffer was added and after a 1 hour incubation, cAMP concentrations were determined according to the manufacturer specification, with the HTRF kit.
In general terms: TR-FRET usually uses a lanthanide donor and a delayed reading to cut background.

For another experiment, the target named is T3, NK1 (Homo sapiens, UniProt P25103).
T3 construct: expressed in transfected cells; host or cells: CHO-AEQ (CHO-K1 coexpressing mitochondrial apoaequorin)
Nature of the experiment: Aequorin assay, Neurokinin NK1. Format: cell-based. The note with it: antagonism, CHO-AEQ. The procedure:
as §1
Aequorin assays were conducted to monitor activity for 8′OH-2CF3-dihydroergotamine (8′OH-2CF3-DHE) against the receptors indicated in Table 1 above (except for mGlu3 and mGlu5). CHO-K1 cells coexpressing mitochondrial apoaequorin and the recombinant human receptor of interest were grown to mid-log phase in culture media without antibiotics and then detached with PBS-EDTA, centrifuged and resuspended in assay buffer (DMEM/HAM's F12 with HEPES, without phenol red+0.1% BSA, protease free) at a concentration of 1×10^6 cell/mL. […]
50 μL of the cell suspension was mixed with 50 μL of test or reference agonist in a 96-well plate. The resulting emission of light was recorded using Hamamatsu Functional Drug Screening System 6000 (FDSS 6000) luminometer. […]
To standardize the emission of recorded light (and determine of the “100% signal”) across plates and across different experiments, some wells contained 100 μM digitonin or a saturating concentration of ATP (20 μM).

The structures appear in SMILES notation.

T1 sequence (P35462 whole entry): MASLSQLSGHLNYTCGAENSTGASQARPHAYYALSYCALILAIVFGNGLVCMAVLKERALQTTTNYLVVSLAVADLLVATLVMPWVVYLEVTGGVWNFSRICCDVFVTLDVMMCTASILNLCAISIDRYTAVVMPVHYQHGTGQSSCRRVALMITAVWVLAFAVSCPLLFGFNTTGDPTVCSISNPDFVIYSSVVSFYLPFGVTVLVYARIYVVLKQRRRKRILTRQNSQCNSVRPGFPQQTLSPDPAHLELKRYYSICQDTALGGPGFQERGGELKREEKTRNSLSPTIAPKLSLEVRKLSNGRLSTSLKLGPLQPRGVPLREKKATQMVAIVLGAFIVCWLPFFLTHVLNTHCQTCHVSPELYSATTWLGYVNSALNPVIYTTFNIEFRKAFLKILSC
T2 sequence (P30939 whole entry): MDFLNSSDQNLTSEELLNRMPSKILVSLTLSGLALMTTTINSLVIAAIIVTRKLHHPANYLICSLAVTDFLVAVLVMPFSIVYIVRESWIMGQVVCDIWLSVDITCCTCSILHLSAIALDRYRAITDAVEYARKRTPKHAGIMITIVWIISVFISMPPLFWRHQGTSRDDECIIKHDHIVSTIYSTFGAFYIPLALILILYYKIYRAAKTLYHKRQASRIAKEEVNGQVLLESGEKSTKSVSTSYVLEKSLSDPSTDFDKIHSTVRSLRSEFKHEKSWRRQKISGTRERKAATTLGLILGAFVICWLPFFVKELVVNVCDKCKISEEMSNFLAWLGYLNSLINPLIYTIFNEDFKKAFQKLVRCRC
T3 sequence (P25103 whole entry): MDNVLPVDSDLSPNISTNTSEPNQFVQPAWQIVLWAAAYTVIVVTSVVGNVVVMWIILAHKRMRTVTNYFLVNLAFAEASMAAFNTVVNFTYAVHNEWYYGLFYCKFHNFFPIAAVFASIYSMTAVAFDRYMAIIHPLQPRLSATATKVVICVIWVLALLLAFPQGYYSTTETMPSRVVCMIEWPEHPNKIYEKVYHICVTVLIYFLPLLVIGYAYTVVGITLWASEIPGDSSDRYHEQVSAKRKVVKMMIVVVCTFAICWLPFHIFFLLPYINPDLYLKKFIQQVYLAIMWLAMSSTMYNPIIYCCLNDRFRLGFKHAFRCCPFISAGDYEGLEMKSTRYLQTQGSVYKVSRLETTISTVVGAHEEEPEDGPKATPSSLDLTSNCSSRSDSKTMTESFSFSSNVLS

Regarding `CN1C[C@H](C(=O)N[C@]2(C)O[C@@]3(O)[C@@H]4CC[C@@H](O)N4C(=O)[C@H](Cc4ccccc4)N3C2=O)C[C@@H]2c3cccc4[nH]c(C(F)(F)F)c(c34)C[C@H]21` [8′OH-2-CF3-DHE, 8′-Hydroxy-2-CF3-dihydroergotamine], the EC50 at Dopamine D3 amounted to 32.3 nM. Further, the “Activity (Agonism: EC50; Antagonism: IC50), 5-HT1F” value at Serotonin 5-HT1F is “Inactive”. The compound also yielded an IC50 on NK1 of over 1000 nM.

A word on the EC50: it is the midpoint of the concentration-response curve. Read a low EC50 as higher potency in that assay. By IC50 is commonly meant the concentration at which inhibition is half-maximal. A low value points to higher potency.
